One series has as its system Pyrenophora teres. Put plainly: In vivo preventive test on Pyrenophora teres (net blotch on barley). As to conditions: for Eff. %: barley, spray, graded 14 days after contamination vs control plants. Here is the method:
In Vivo Preventive Test on Pyrenophora teres (Net Blotch on Barley)
(§1) The active ingredients tested are prepared by homogenization in a mixture of acetone/tween/DMSO, and then diluted with water to obtain the desired active material concentration.
Barley plants (“Plaisant” variety), sown in starter cups on a 50/50 peat soil-pozzolana substrate and grown at 22° C., are treated at the 1-leaf stage (10 cm height) by spraying with the active ingredient prepared as described above. Plants, used as controls, are treated with the mixture of acetone/tween/DMSO/water not containing the active material.
After 24 hours, the plants are contaminated by spraying the leaves with an aqueous suspension of Pyrenophora teres spores (12 000 spores per ml). The spores are collected from a 12-day-old culture. The contaminated barley plants are incubated for 48 hours at 20° C. and at 100% relative humidity, and then for 12 days at 20° C. at 70-80% relative humidity.
Grading (% of efficacy) is carried out 14 days after the contamination, in comparison with the control plants. plants.

For a further series, the system named is Septoria tritici. Put plainly: In vivo preventive test on Septoria tritici (leaf spot on wheat). As to conditions: preventive spray, wheat plants, grading 24 days after contamination. Here is the method:
In Vivo Preventive Test on Septoria tritici (Leaf Spot on Wheat)
as §1
Wheat plants (“Scipion” variety), sown in starter cups on a 50/50 peat soil-pozzolana substrate and grown at 22° C., are treated at the 1-leaf stage (10 cm height) by spraying with the active ingredient prepared as described above. Plants, used as controls, are treated with the mixture of acetone/tween/DMSO/water not containing the active material.
After 24 hours, the plants are contaminated by spraying the leaves with an aqueous suspension of cryopreserved Septoria tritici spores (500 000 spores per ml). The contaminated wheat plants are incubated for 72 hours at 18° C. and at 100% relative humidity, and then for 21 days at 90% relative humidity.
Grading (% of efficacy) is carried out 24 days after the contamination, in comparison with the control plants.

For a further series, the system named is Puccinia recondita. Put plainly: In vivo preventive test on Puccinia recondita (brown rust on wheat). As to conditions: for Eff. %: wheat, spray, graded 12 days after contamination vs control plants. The procedure, abridged: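 Wheat seedlings ("Scipion") sprayed with compound at the 1-leaf stage, inoculated 24 h later with Puccinia recondita spores (100 000 spores per ml). Incubated 24 h at 20° C and 100% RH, then 10 days at 20° C and 70-80% RH. Efficacy (%) versus solvent-treated controls graded 12 days after contamination.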

The test system of the next series is Uromyces appendiculatus. Put plainly: In vivo preventive test on Uromyces appendiculatus (bean rust). To be noted: preventive spray, bean plants, grading 11 days after contamination. In short, it runs like this: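 'Saxa' bean plants at the 2-leaf stage were sprayed with compound and inoculated 24 h later with U. appendiculatus spores (150 000 spores per ml). Plants were incubated 24 h at 20 °C and 100% RH, then 10 days at 20 °C and 70–80% RH. Percent efficacy versus solvent-treated controls was graded 11 days post-inoculation.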

Another series deals with Botrytis cinerea. Kind of series: In vivo preventive test on Botrytis cinerea (grey mould), gherkin plants. As to conditions: for Eff. %: gherkin, spray, graded 4 to 5 days after contamination vs control plants. Here is the method: In Vivo Preventive Test on Botrytis cinerea (Grey Mould)
(§2) The active ingredients tested are prepared by homogenization in a mixture of acetone/tween/DMSO and then diluted with water to obtain the desired active material concentration.
(§3) Gherkin plants (“Vert petit de Paris” variety), sown in starter cups on a 50/50 peat soil-pozzolana substrate and grown at 24° C., are treated at the Z11 cotyledon stage by spraying with the active ingredient prepared as described above. Plants, used as controls, are treated with the mixture of acetone/tween/DMSO/water not containing the active material.
After 24 hours, the plants are contaminated by spraying the cotyledons with an aqueous suspension of cryopreserved Botrytis cinerea spores (50 000 spores per ml). The spores are suspended in a nutrient solution composed of 10 g/L of PDB, 50 g/L of D-Fructose, 2 g/L of NH4NO3 and 1 g/L of KH2PO4. The contaminated gherkin plants are incubated at 17° C. and at 90% relative humidity.
Grading (% of efficacy) is carried out 4 to 5 days after the contamination, in comparison with the control plants.

A short description of series [1]: log P by HPLC on reversed phase columns (EEC directive 79/831 Annex V.A8). Format: physicochemical. As to conditions: Table 1, formula (I); HPLC/LC-MS at pH 2.7, 0.1% formic acid in water / acetonitrile, gradient 10% to 95%.
Another series concerns Sphaerotheca fuliginea. Put plainly: In vivo preventive test on Sphaerotheca fuliginea (powdery mildew on cucurbits). As to conditions: for Eff. %: preventive spray. Here is the method: In Vivo Preventive Test on Sphaerotheca fuliginea (Powdery Mildew on Cucurbits)
as §2, §3
After 24 hours, the plants are contaminated by spraying the cotyledons with an aqueous suspension of Sphaerotheca fuliginea spores (100 000 spores per ml). The spores are collected from infected plants. The contaminated gherkin plants are incubated at about 20° C. and at 70-80% relative humidity.
Grading (% of efficacy) is carried out 12 days after the contamination, in comparison with the control plants.

Another series deals with Phakopsora pachyrhizi. Kind of series: Phakopsora test (soybeans)/preventive. Format: in vivo. To be noted: 10 ppm of active ingredient, evaluated 7 days after inoculation. Here is the method: Phakopsora Test (Soybeans)/Preventive
To produce a suitable preparation of active compound, 1 part by weight of active compound is mixed with the stated amounts of solvent and emulsifier, and the concentrate is diluted with water to the desired concentration.
To test for preventive activity, young plants are sprayed with the preparation of active compound at the stated rate of application. After the spray coating has dried on, the plants are inoculated with an aqueous spore suspension of the causal agent of soybean rust (Phakopsora pachyrhizi) and stay for 24 h without light in an incubation cabinet at approximately 24° C. and a relative atmospheric humidity of 95%.
The plants remain in the incubation cabinet at approximately 24° C. and a relative atmospheric humidity of approximately 80% and a day/night interval of 12 h.
The test is evaluated 7 days after the inoculation. 0% means an efficacy which corresponds to that of the untreated control, while an efficacy of 100% means that no disease is observed.

The test system of the next series is Alternaria brassicae. Put plainly: In vivo preventive test on Alternaria brassicae (leaf spot on radish). To be noted: spray, graded 6 days after contamination vs control plants. Here is the method: In Vivo Preventive Test on Alternaria brassicae (Leaf Spot on Radish)
as §1
Radish plants (“Pernod Clair” variety), sown in starter cups on a 50/50 peat soil-pozzolana substrate and grown at 17° C., are treated at the cotyledon stage by spraying with the active ingredient prepared as described above. Plants, used as controls, are treated with the mixture of acetone/tween/DMSO/water not containing the active material.
After 24 hours, the plants are contaminated by spraying the cotyledons with an aqueous suspension of Alternaria brassicae spores (50 000 spores per ml). The spores are collected from a 15-day-old culture. The contaminated radish plants are incubated at 20° C. and at 100% relative humidity.
Grading (% of efficacy) is carried out 6 days after the contamination, in comparison with the control plants.

The mark [2] stands for this setting: 100 ppm, gherkin plants, grading 12 days after contamination.
Setting [3] is: 500 ppm, gherkin plants, grading 12 days after contamination.
The mark [4] stands for this setting: dose 100 ppm of active ingredient, comparison with known compounds.
Setting [5] is: dose 100 ppm, comparison with known compounds, same conditions.

Regarding `CC(C)C1Cc2c(NC(=S)c3cccnc3C(F)F)cccc2C1(C)C` (stereo not drawn) [Example 65], the Eff. % in the series on Pyrenophora teres (dose 100 ppm) is 70%; in the series with Septoria tritici (100 ppm), 80%; with Puccinia recondita (dose 100 ppm), 98%; in the series on Uromyces appendiculatus (100 ppm) it was 100%; in the series with Botrytis cinerea (dose 100 ppm) it was 100%; in the series with Sphaerotheca fuliginea (setting [2]) it was 98%. For the same compound, the “logP^[a]” value in [1] is 4.46^[a].
As to `CCC1Cc2c(NC(=O)c3cccnc3C(F)F)cccc2C1(C)C` (racemic) [Example 37], the Eff. % in the series with Phakopsora pachyrhizi turned out to be 95%; in the series on Septoria tritici (500 ppm) it was 97%; with Puccinia recondita (dose 500 ppm), 100%; with Uromyces appendiculatus (500 ppm), 100%; in the series with Alternaria brassicae (dose 500 ppm), 96%; in the series on Sphaerotheca fuliginea (setting [3]), 100%. For the same compound, the “logP^[a]” value in series [1] is 3.78^[a].
In the case of `CCON=C1CC(C)c2c(NC(=O)c3cccnc3C(F)F)cccc21` (racemic) [Example 52], the Eff. % with Pyrenophora teres (dose 500 ppm) was determined as 75%; in the series on Septoria tritici (500 ppm) it was 86%; in the series on Uromyces appendiculatus (500 ppm), 93%; in the series with Alternaria brassicae (dose 500 ppm) it was 86%. Moreover, in series [1], the “logP^[a]” value was 2.71^[a].
Turning to `CC(C)C1OC(C)(C)c2cccc(NC(=O)c3cccnc3C(F)F)c21` (racemic) [Example 76], the Eff. % with Pyrenophora teres (dose 100 ppm) worked out at 92%; in the series with Septoria tritici (100 ppm), 97%; with Puccinia recondita (dose 100 ppm) it was 94%; with Uromyces appendiculatus (100 ppm), 96%; with Botrytis cinerea (dose 100 ppm) it was 98%; in the series on Alternaria brassicae (dose 100 ppm), 75%. Besides, the Eff. % in the series with Sphaerotheca fuliginea (setting [2]) worked out at 98%. Besides, the “logP^[a]” value in series [1] is 2.73^[a].
Consider `CC(C)CC1CCc2cccc(NC(=O)c3cccnc3C(F)F)c21` (stereo not drawn) [Example 84], for which the Eff. % was 75% with Pyrenophora teres (dose 100 ppm); 100% with Septoria tritici (100 ppm); 97% in the series on Puccinia recondita (dose 100 ppm); 100% with Uromyces appendiculatus (100 ppm); 99% in the series with Botrytis cinerea (dose 100 ppm); 100% in the series with Sphaerotheca fuliginea (setting [2]). Further, the “logP^[a]” value in series [1] was 3.62^[a].
As for `CC(C)(C)CC1CCc2cccc(NC(=O)c3cccnc3C(F)F)c21` (stereo not drawn) [Example 90], the Eff. % with Pyrenophora teres (dose 100 ppm) turned out to be 86%; in the series on Septoria tritici (100 ppm), 96%; in the series with Puccinia recondita (dose 100 ppm), 98%; in the series on Uromyces appendiculatus (100 ppm), 100%; with Botrytis cinerea (dose 100 ppm), 80%; in the series with Alternaria brassicae (dose 100 ppm), 93%. Besides, the Eff. % in the series on Sphaerotheca fuliginea (setting [2]) was 100%. The “logP^[a]” value in [1] was 3.92^[a].
As for `CC1CC(C)(C)c2cccc(NC(=O)c3ccccc3C(F)F)c21` (stereo not drawn) [2-(difluoromethyl)-N-(1,1,3-trimethyl-2,3-dihydro-1H-inden-4-yl)benzamide, reference compound], the “protection (in words)” value is listed as “lower protection” in the series with Pyrenophora teres (setting [4]), “low protection” with Puccinia recondita (setting [4]), “no protection at all” in the series with Botrytis cinerea (setting [4]) and “lower protection” in the series on Sphaerotheca fuliginea (setting [4]). Moreover, the Efficacy with Pyrenophora teres (setting [5]) came to 0%; in the series with Puccinia recondita (setting [5]), 83%; in the series with Botrytis cinerea (setting [5]), 0%; in the series on Sphaerotheca fuliginea (dose 100 ppm, comparison with prior-art compounds, gherkin plants, grading 12 days after contamination), 0%.
In the case of `CC1OC(C)(C)c2cccc(NC(=O)c3cccnc3C(F)F)c21` (racemic) [Example 12], the Eff. % in the series with Pyrenophora teres (dose 500 ppm) is given as 86%; with Septoria tritici (500 ppm), 96%; in the series on Puccinia recondita (dose 500 ppm) it was 100%; with Uromyces appendiculatus (500 ppm), 100%; with Botrytis cinerea (dose 500 ppm), 100%. For the same compound, the “logP^[a]” value in series [1] is 2.11^[a].
For the compound `CC(C)C1c2cccc(NC(=O)c3cccnc3C(F)F)c2CC1C` (stereo not drawn) [Example 27], the Eff. % was found to be 83% in the series on Pyrenophora teres (dose 500 ppm); 86% in the series with Septoria tritici (500 ppm); 100% in the series on Puccinia recondita (dose 500 ppm); 100% in the series on Uromyces appendiculatus (500 ppm); 100% with Botrytis cinerea (dose 500 ppm); 100% with Sphaerotheca fuliginea (setting [3]). Moreover, the “logP^[a]” value in series [1] is 3.78^[a].
For `CC1CCc2cccc(NC(=O)c3cccnc3C(F)F)c21` (racemic) [Example 4], the Eff. % in the series on Pyrenophora teres (dose 500 ppm) is reported as 75%; in the series with Septoria tritici (500 ppm), 100%; with Puccinia recondita (dose 500 ppm), 97%; in the series on Uromyces appendiculatus (500 ppm), 100%; in the series on Alternaria brassicae (dose 500 ppm) it was 71%. The “logP^[a]” value in series [1] was 2.63^[a].
With `CCC1(CC)OC(C(C)C)c2c(NC(=O)c3cccnc3C(F)F)cccc21` (racemic) [Example 56], the Eff. % stood at 92% with Pyrenophora teres (dose 500 ppm); 93% with Septoria tritici (500 ppm); 88% in the series with Puccinia recondita (dose 500 ppm); 100% with Uromyces appendiculatus (500 ppm); 93% with Alternaria brassicae (dose 500 ppm); 98% in the series on Sphaerotheca fuliginea (setting [3]). For the same compound, the “logP^[a]” value in series [1] is 3.64^[a].
For `CCCCON=C1CC(C)c2c(NC(=O)c3cccnc3C(F)F)cccc21` (racemic) [Example 51], the Eff. % with Pyrenophora teres (dose 500 ppm) is 83%; with Puccinia recondita (dose 500 ppm), 75%; in the series with Uromyces appendiculatus (500 ppm) it was 70%; with Alternaria brassicae (dose 500 ppm), 93%. In addition, the “logP^[a]” value in [1] is 3.18^[a].
On to `CCC1Cc2c(NC(=S)c3cccnc3C(F)F)cccc2C1(C)C` (stereo not drawn) [Example 69], for which the Eff. % in the series on Pyrenophora teres (dose 100 ppm) was determined as 70%; in the series with Septoria tritici (100 ppm), 80%; in the series on Puccinia recondita (dose 100 ppm) it was 100%; with Uromyces appendiculatus (100 ppm), 100%; in the series with Sphaerotheca fuliginea (setting [2]), 100%. Also, the “logP^[a]” value in series [1] is 4.16^[a].

(Values after patent publication US9376391B2, “Difluoromethyl-nicotinic-tetrahydronaphthyl carboxamides as fungicides” (BAYER CROPSCIENCE AKTIENGESELLSCHAFT, priority 2012, dated 2016).)
